This is an account of results in ChEMBL document CHEMBL1909637, “Structure-activity relationship and enzyme kinetic studies on 4-aryl-1H-1,2,3-triazoles as indoleamine 2,3-dioxygenase (IDO) inhibitors” (Eur J Med Chem, 2011).

The source made the active and inactive calls. The calls are words filed in the database; no cut-off is given here.

The target in experiment [1] is T1, Indoleamine 2,3-dioxygenase 1 (Homo sapiens, UniProt P14902). As to the kind of experiment: Reversal inhibition of human recombinant indoleamine-2,3-dioxygenase expressed in Escherichia coli BL21 using L-tryptophan as substrate by Dixon plot analysis.
Target sequence in this assay (P14902 whole entry, looked up): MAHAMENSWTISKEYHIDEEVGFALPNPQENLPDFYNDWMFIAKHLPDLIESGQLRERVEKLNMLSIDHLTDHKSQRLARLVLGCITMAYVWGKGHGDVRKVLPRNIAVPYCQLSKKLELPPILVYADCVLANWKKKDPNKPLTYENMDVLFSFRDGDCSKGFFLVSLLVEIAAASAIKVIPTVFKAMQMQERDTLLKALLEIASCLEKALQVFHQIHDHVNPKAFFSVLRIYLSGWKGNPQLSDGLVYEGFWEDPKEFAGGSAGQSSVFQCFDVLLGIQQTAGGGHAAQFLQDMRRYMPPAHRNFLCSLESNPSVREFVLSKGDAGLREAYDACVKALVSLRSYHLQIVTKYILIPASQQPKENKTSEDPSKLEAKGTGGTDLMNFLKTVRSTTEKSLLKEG
The subject of experiment [2] is T-cell. Nature of the experiment: Induction of BALB/c mouse LLC-stimulated T cell proliferation after 4 days by WST-1 method. In kind it is functional, cell-based.
Experiment [3] deals with T1, Indoleamine 2,3-dioxygenase 1. Nature of the experiment: Inhibition of human recombinant indoleamine-2,3-dioxygenase expressed in Escherichia coli BL21 using L-tryptophan as substrate after 30 mins by microplate reader analysis.
Target sequence in this assay (P14902 whole entry): as the sequence (P14902 whole entry, looked up) above
For experiment [4] the target is unchanged. Nature of the experiment: Uncompetitive inhibition of human recombinant indoleamine-2,3-dioxygenase expressed in Escherichia coli BL21 using L-tryptophan as substrate by Dixon plot analysis.
Target sequence in this assay (P14902 whole entry): as the sequence (P14902 whole entry, looked up) above
For experiment [5] the target is unchanged. As to the kind of experiment: Inhibition of indoleamine-2,3-dioxygenase in human HEK293 cells assessed as N-formylkynurenine level after 5 hrs by spectrophotometric analysis. In kind it is cell-based.
Target sequence in this assay (P14902 whole entry): as the sequence (P14902 whole entry, looked up) above
Experiment [6] concerns T-cell. Nature of the experiment: Ratio of 1-methyl tryptophan to compound for induction of BALB/c mouse LLC-stimulated T cell proliferation. In kind it is functional.
Experiment [7] deals with T1, Indoleamine 2,3-dioxygenase 1. Nature of the experiment: Ratio of IC50 for human recombinant indoleamine-2,3-dioxygenase expressed in Escherichia coli BL21 to IC50 for indoleamine-2,3-dioxygenase in human HEK293 cells.
Target sequence in this assay (P14902 whole entry, looked up): as above

Take `c1ccc(-c2cnn[nH]2)cc1`: the inhibition result in experiment [1] was “Active”. Also, the Activity entry in the experiment with T-cell [2] was “Dose-dependent effect”.
On to `c1cncc(-c2c[nH]nn2)c1`, for which, in experiment [3] (read-out: IC50), the IC50 was found to be 0.708 mM.
Turning to `COC(=O)c1ccc(-c2cnn[nH]2)cc1`, the IC50 result in experiment [3] is recorded as “Not Active”.
Regarding `COc1ccc(-c2c[nH]nn2)cc1`, in experiment [3] (read-out: IC50), the IC50 was found to be 6 mM.
Still for that read-out and setting: for `Brc1ccc(-c2c[nH]nn2)cc1` the value was 1.26 mM; for `O=[N+]([O-])c1ccc(-c2nn[nH]c2[N+](=O)[O-])cc1`, 0.533 mM.
As for `Brc1ccc(-c2nn[nH]n2)cc1`, the IC50 result in experiment [3] was “Not Active”.
Consider `Brc1nn[nH]c1-c1ccccc1`, for which the IC50 entry in experiment [3] is listed as “Not Active”.
For `Clc1ccccc1-c1c[nH]nn1`, the Ki in experiment [4] came to 14.5 µM. The IC50 is 0.086 mM in experiment [3] (read-out: IC50) and 19.3 µM in experiment [5].
The corresponding values for `Brc1ccccc1-c1c[nH]nn1` are 18 µM, 0.148 mM and 31.6 µM.
As for `c1ccc2[nH]nnc2c1` [BENZOTRIAZOLE], the IC50 in experiment [3] (read-out: IC50) was found to be 2.57 mM.
With `Clc1nn[nH]c1-c1ccccc1`, the IC50 result in experiment [3] is given as “Not Active”.
`Clc1ccccc1-c1cnn[nH]1`: the Ratio in the experiment with T-cell [6] was 2. The Ratio IC50 in experiment [7] was 3. Besides, the inhibition result in experiment [1] was “Active”. Further, the Activity result in the experiment with T-cell [2] is “Dose-dependent effect”.
On to `Ic1nn[nH]c1-c1ccccc1`, for which the IC50 in experiment [3] (read-out: IC50) amounted to 1.37 mM.
On the same count and under the same terms, for `Clc1ccc(-c2c[nH]nn2)cc1` the value was 0.817 mM; for `Cc1ccc(-c2[nH]nnc2Br)cc1`, 1.03 mM.
Still for that read-out and setting: with `CCOC(=O)c1cn(-c2ccc(Cl)cc2)nn1` the figure was 2 mM.
Take `Cc1ccc(-c2c[nH]nn2)cc1`: in experiment [3], the IC50 entry is listed as “Not Active”.
For `Fc1ccc(-c2c[nH]nn2)cc1`, in experiment [3] (read-out: IC50), the half-maximal inhibitory concentration (IC50) stood at 0.58 mM.
Still for that read-out and setting: for `COc1ccccc1-c1c[nH]nn1` the value was 1.03 mM.
In the case of `Brc1ccccc1-c1cnn[nH]1`, the Ratio IC50 in experiment [7] turned out to be 3. Further, the inhibition result in experiment [1] was “Active”. Also, the Activity result in the experiment on T-cell [2] was “Dose-dependent effect”.
Consider `On1nnc2ccccc21`, for which the IC50 entry in experiment [3] is “Not Active”.
